Values of other authors, collected in US20250367228A1, “FORMULATIONS FOR BOOSTING NAD+ USING MULTIPLE BIOLOGICAL PATHWAYS CONCURRENTLY TO OVERCOME ENZYMATIC DEGRADATION AND IMPROVE DOWNSTREAM BENEFITS” (PROHEALTH, priority 2023, published 2025).

Legend:
CD38 = molecular target: T1, CD38 (Homo sapiens, UniProt P28907)
T1 sequence (P28907 1-300): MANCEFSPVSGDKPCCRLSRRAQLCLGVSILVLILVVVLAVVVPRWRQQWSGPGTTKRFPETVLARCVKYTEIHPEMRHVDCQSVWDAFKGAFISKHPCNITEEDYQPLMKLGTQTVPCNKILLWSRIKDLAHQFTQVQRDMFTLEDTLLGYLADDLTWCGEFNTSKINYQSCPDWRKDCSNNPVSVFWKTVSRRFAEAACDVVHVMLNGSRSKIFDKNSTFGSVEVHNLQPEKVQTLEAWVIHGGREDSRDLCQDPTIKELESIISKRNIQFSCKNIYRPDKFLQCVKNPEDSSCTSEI

[1] = system: NAD+ blood concentrations; conditions: 1000 mg/day of NR, elderly subjects

Row | inhibition of CD38 (CD38) | Compound | increase of NAD+ blood concentrations [1]
1 | inhibited | O=c1cc(-c2ccc(O)cc2)oc2cc(O)cc(O)c12 [apigenin] | 
2 |  | NC(=O)c1ccc[n+]([C@@H]2O[C@H](CO)[C@@H](O)[C@H]2O)c1 [NR, Nicotinamide riboside] | two-fold
3 | inhibited | O=c1c(O)c(-c2ccc(O)c(O)c2)oc2cc(O)cc(O)c12 [quercetin] | 
